Results on 22 compounds are retold here after publication PMC10779535, “Design and Synthesis of D3R Bitopic Ligands with Flexible Secondary Binding Fragments: Radioligand Binding and Computational Chemistry Studies” (Molecules, 2023).

In experiment [1] the target is T1, D3R (Homo sapiens, UniProt P35462). As to the kind of experiment: D3R radioligand binding assay ([125I]IABN, HEK cells). The arrangement: expressed in transfected cells. The conditions noted are these: for Ki: human D3 expressed in HEK cells, [125I]IABN radioligand, at least three experiments, HCl salts, read-out: Ki ± SEM D3R; for D2R/D3R Ratio: (Ki for D2R)/(Ki for D3R), D3R versus D2R selectivity (fold). As to the method: (§1) The receptor binding assay for the D2R and the D3R and the β-arrestin recruitment assay for the D3R were performed by following the previously reported methods.
T1 sequence (P35462 whole entry): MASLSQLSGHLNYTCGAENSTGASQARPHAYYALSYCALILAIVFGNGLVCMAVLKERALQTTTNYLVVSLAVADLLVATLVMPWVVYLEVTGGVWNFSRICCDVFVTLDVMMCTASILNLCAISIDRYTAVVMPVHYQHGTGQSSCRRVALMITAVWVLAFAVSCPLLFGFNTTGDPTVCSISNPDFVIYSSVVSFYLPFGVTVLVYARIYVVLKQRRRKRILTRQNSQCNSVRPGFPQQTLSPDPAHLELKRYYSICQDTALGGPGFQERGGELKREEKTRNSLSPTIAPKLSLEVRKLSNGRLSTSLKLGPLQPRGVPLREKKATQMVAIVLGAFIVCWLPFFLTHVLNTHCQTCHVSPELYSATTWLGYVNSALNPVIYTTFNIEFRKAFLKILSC

In experiment [2] the target is T1, D3R. As to the kind of experiment: β-arrestin competition (recruitment) assay against dopamine. The format is cell-based. The conditions noted are these: competition with dopamine (30 nM) for the D3R, at least three experiments; read-out: β-Arrestin Assay IC50 ± SEM. On the procedure:
Compounds having a longer aliphatic linker ((R,S)-trans-2b–d) have a similar IC50 value in this assay. As expected, the IC50 value of β-arrestin assay parallels the Ki value in the D3R binding assay. It is of interest to note that the potency of (R,S)-trans-2a in the β-arrestin assay is higher than its potency in the in vitro binding assay for the D3R.
as §1

In a further experiment the target is T2, human D2 (Homo sapiens, UniProt P14416).
T2 construct: expressed in transfected cells
T2 sequence (P14416 whole entry): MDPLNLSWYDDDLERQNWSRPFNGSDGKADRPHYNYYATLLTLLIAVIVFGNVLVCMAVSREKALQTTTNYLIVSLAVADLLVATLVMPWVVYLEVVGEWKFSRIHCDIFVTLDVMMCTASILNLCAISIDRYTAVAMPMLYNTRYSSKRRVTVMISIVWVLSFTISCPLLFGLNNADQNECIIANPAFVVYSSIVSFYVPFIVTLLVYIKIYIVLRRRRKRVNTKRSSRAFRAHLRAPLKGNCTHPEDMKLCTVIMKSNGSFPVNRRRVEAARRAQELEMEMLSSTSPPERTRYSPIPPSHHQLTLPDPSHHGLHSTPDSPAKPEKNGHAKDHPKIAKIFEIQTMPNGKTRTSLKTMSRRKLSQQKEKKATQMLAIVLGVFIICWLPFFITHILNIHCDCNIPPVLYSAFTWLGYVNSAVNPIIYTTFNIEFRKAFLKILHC
As to the kind of experiment: D2R radioligand binding assay ([125I]IABN, HEK cells). The settings on record: human D2 expressed in HEK cells, [125I]IABN radioligand, at least three experiments, HCl salts; read-out: Ki ± SEM D2R. On the procedure:
as §1

Experiment [3] has as its target T1, D3R. The settings on record: cited from earlier work; for Ki: read-out: D3R affinity.
The target in another experiment is D2R. The conditions noted are these: cited from earlier work.
For experiment [4], the target named is T1, D3R. The arrangement: method as in PMID 33918451. The settings on record: MDS, Fallypride; cited from earlier work.
Where [5] appears, read: Figure 1, PET radiotracers, read-out: D2R affinity.

The IC50 is the concentration that gives 50% inhibition.

Where two headings read alike, the source gives them in different places.

In the case of `C=CCN1C[C@H](OC(=O)NCCCCCCCCCC)C[C@H]1CNC(=O)c1cc(CCCF)cc(OC)c1OC` [(R,S)-trans-2d, (3R,5S)-1-allyl-5-((5-(3-fluoropropyl)-2,3-dimethoxybenzamido)methyl)pyrrolidin-3-yl decylcarbamate], the Ki on D3R [1] worked out at 2.8 ± 0.5 nM; at human D2 it was 35.6 ± 8.1 nM. In addition, the IC50 at D3R [2] turned out to be 21.2 ± 9.8 nM.
In the case of `C=CCN1C[C@H](OC(=O)NCCCCCCCC)C[C@H]1CNC(=O)c1cc(CCCF)cc(OC)c1OC` [(R,S)-trans-2c, (3R,5S)-1-allyl-5-((5-(3-fluoropropyl)-2,3-dimethoxybenzamido)methyl)pyrrolidin-3-yl octylcarbamate], at D3R [1], the “D2R/D3R Ratio” value was determined as 4.7 and the Ki turned out to be 3.4 ± 0.8 nM. For the same compound, the IC50 on D3R [2] was 27.8 ± 21.1 nM. The Ki at human D2 came out at 15.9 ± 3.3 nM.
For `C=CCN1C[C@@H](OC(=O)NCCCCCCCCCC)C[C@@H]1CNC(=O)c1cc(CCCF)cc(OC)c1OC` [(S,R)-trans-2d, (3S,5R)-1-allyl-5-((5-(3-fluoropropyl)-2,3-dimethoxybenzamido)methyl)pyrrolidin-3-yl decylcarbamate], in that order: 0.7, 2630 ± 815 nM, > 1000 nM and 1940 ± 380 nM.
For the compound `C=CCN1C[C@H](OC(=O)NCCOCCOCCOCCOC)C[C@H]1CNC(=O)c1cc(CCCF)cc(OC)c1OC` [(R,S)-trans-2f, (3R,5S)-1-allyl-5-((5-(3-fluoropropyl)-2,3-dimethoxybenzamido)methyl)pyrrolidin-3-yl (2,5,8,11-tetraoxatridecan-13-yl)carbamate], on D3R [1], the “D2R/D3R Ratio” value is 2.2 and the Ki was 5.3 ± 0.8 nM. The Ki at human D2 was 11.5 ± 2.6 nM.
Regarding `C=CCN1C[C@H](OC(=O)NCCCCCCCCc2cccs2)C[C@H]1CNC(=O)c1cc(CCCF)cc(OC)c1OC` [(R,S)-trans-2i, (3R,5S)-1-allyl-5-((5-(3-fluoropropyl)-2,3-dimethoxybenzamido)methyl)pyrrolidin-3-yl (8-(thiophen-2-yl)octyl)carbamate], at D3R [1], the “D2R/D3R Ratio” value came out at 5.6 and the Ki came to 0.7 ± 0.1 nM. Besides, on human D2, the Ki stood at 3.7 ± 0.2 nM.
As for `C=CCN1C[C@@H](OC(=O)NCCCCCCCCCC)C[C@H]1CNC(=O)c1cc(CCCF)cc(OC)c1OC` [(S,S)-cis-2d, (3S,5S)-1-allyl-5-((5-(3-fluoropropyl)-2,3-dimethoxybenzamido)methyl)pyrrolidin-3-yl decylcarbamate], the Ki was 282 ± 69 nM on D3R [1] and 164 ± 29 nM at human D2. Besides, on D3R [2], the IC50 is 608 ± 231 nM.
`CCN(CCCCNC(=O)c1cc2ccccc2[nH]1)CCNC(=O)c1cc(Br)cc(OC)c1OC` [HY-2-93]: at D3R [3] (HY-2-93), the “D3R/D2R, D3R versus D2R selectivity (fold)” value is given as 180 and the Ki is 0.8 nM.
Consider `CCN1CCC[C@H]1CNC(=O)c1cc(Br)cc(OC)c1O[11CH3]` [[^11C]FLB 457], for which, on D3R [3] (Figure 1, PET radiotracers), the D2R/D3R was 1.294 and the Ki is 0.017 nM. In addition, the Ki on D2R (setting [5]) is 0.022 nM.
For the compound `C=CCN1C[C@H](OC(=O)NCCCCCCc2cccs2)C[C@H]1CNC(=O)c1cc(CCCF)cc(OC)c1OC` [(R,S)-trans-2h, (3R,5S)-1-allyl-5-((5-(3-fluoropropyl)-2,3-dimethoxybenzamido)methyl)pyrrolidin-3-yl (6-(thiophen-2-yl)hexyl)carbamate], the “D2R/D3R Ratio” value on D3R [1] came to 6.2. For the same compound, the Ki on D3R [1] was 0.6 ± 0.1 nM; at human D2, 3.9 ± 0.4 nM.
In the same order, the values of `C=CCN1C[C@H](OC(=O)NCCCCCCCCc2cccs2)C[C@@H]1CNC(=O)c1cc(CCCF)cc(OC)c1OC` [(R,R)-cis-2i, (3R,5R)-1-allyl-5-((5-(3-fluoropropyl)-2,3-dimethoxybenzamido)methyl)pyrrolidin-3-yl (8-(thiophen-2-yl)octyl)carbamate] are 3.0, 722 ± 234 nM and 2190 ± 235 nM.
For the compound `C=CCN1C[C@H](OC(=O)NCCCCCCCCCC)C[C@@H]1CNC(=O)c1cc(CCCF)cc(OC)c1OC` [(R,R)-cis-2d, (3R,5R)-1-allyl-5-((5-(3-fluoropropyl)-2,3-dimethoxybenzamido)methyl)pyrrolidin-3-yl decylcarbamate], the Ki is 1660 ± 433 nM at D3R [1] and 9600 ± 2360 nM at human D2. Further, at D3R [2], the IC50 is > 1000 nM.
Turning to `C=CCN1CCC[C@H]1CNC(=O)c1cc(CCCF)cc(OC)c1OC` [Fallypride], the “Distance to D3R ASP110^3.32” value at D3R [4] is given as 3.17 ± 0.21 Å. Besides, the Ki on D2R (setting [5]) is 0.02 nM.
With `C=CCN1C[C@H](OC(=O)NCCCC)C[C@H]1CNC(=O)c1cc(CCCF)cc(OC)c1OC` [(R,S)-trans-2a, (3R,5S)-1-allyl-5-((5-(3-fluoropropyl)-2,3-dimethoxybenzamido)methyl)pyrrolidin-3-yl butylcarbamate], at D3R [1], the “D2R/D3R Ratio” value stood at 1.8 and the Ki was found to be 2.6 ± 0.3 nM. Also, on D3R [2], the IC50 came out at 0.8 ± 0.5 nM. On human D2, the Ki came out at 4.8 ± 0.5 nM.
Regarding `C=CCN1C[C@H](OC(=O)NCCCCCCCCc2ccsc2)C[C@H]1CNC(=O)c1cc(CCCF)cc(OC)c1OC` [(R,S)-trans-2j, (3R,5S)-1-allyl-5-((5-(3-fluoropropyl)-2,3-dimethoxybenzamido)methyl)pyrrolidin-3-yl (8-(thiophen-3-yl)octyl)carbamate], at D3R [1], the “D2R/D3R Ratio” value worked out at 5.0 and the Ki amounted to 2.1 ± 0.1 nM. The Ki on human D2 amounted to 10.5 ± 2 nM.
As to `C=CCN1C[C@H](OC(=O)NCCOCCOCCOC)C[C@H]1CNC(=O)c1cc(CCCF)cc(OC)c1OC` [(R,S)-trans-2e, (3R,5S)-1-allyl-5-((5-(3-fluoropropyl)-2,3-dimethoxybenzamido)methyl)pyrrolidin-3-yl (2-(2-(2-methoxyethoxy)ethoxy)ethyl)carbamate], on D3R [1], the “D2R/D3R Ratio” value is reported as 2.2 and the Ki was 4.1 ± 0.6 nM. Besides, the Ki at human D2 was 9.2 ± 0.8 nM.
For `C=CCN1C[C@@H](OC(=O)NCCCCCCCCc2cccs2)C[C@@H]1CNC(=O)c1cc(CCCF)cc(OC)c1OC` [(S,R)-trans-2i, (3S,5R)-1-allyl-5-((5-(3-fluoropropyl)-2,3-dimethoxybenzamido)methyl)pyrrolidin-3-yl (8-(thiophen-2-yl)octyl)carbamate], in that order: 0.6, 2420 ± 975 nM and 1470 ± 166 nM.
On to `C=CCN1C[C@@H](OC(=O)NCCCCCCCCc2cccs2)C[C@H]1CNC(=O)c1cc(CCCF)cc(OC)c1OC` [(S,S)-cis-2i, (3S,5S)-1-allyl-5-((5-(3-fluoropropyl)-2,3-dimethoxybenzamido)methyl)pyrrolidin-3-yl (8-(thiophen-2-yl)octyl)carbamate], for which the Ki worked out at 148 ± 37 nM on D3R [1] and 68 ± 12 nM on human D2.
As for `C#CCOCCOCCNC(=O)O[C@@H]1C[C@@H](CNC(=O)c2cc(CCCF)cc(OC)c2OC)N(CC=C)C1` [(R,S)-trans-2g, (3R,5S)-1-allyl-5-((5-(3-fluoropropyl)-2,3-dimethoxybenzamido)methyl)pyrrolidin-3-yl (2-(2-(prop-2-yn-1-yloxy)ethoxy)ethyl)carbamate], on D3R [1], the “D2R/D3R Ratio” value is recorded as 2.4. Further, the Ki at D3R [1] was determined as 3.7 ± 0.8 nM; on human D2 it was 9 ± 0.3 nM.
As to `CCCN(CCC1(O)CC(NC(=O)c2ccc3ccccc3c2)C1)C1CC1c1ccc(Cl)cc1` (stereo not drawn) [CJ-1882], the Ki at D3R [3] (CJ-1882) is 2.8 nM.
Turning to `CCN1CCC[C@H]1CNC(=O)c1c(O)c(Cl)cc(Cl)c1OC` [[^11C]Raclopride, Raclopride], on D3R [3] (Figure 1, PET radiotracers), the D2R/D3R is 0.514 and the Ki was 3.5 nM. Further, the Ki on D2R (setting [5]) was 1.8 nM.
Turning to `CC[11CH2]N1CCO[C@@H]2c3cc(O)ccc3CC[C@H]21` [[^11C]-(+)-PHNO], at D2R (Figure 1, printed with superscript H, read-out: ^HD2R affinity), the Ki was 0.45 nM.
For the compound `C=CCN1C[C@H](OC(=O)NCCCCCC)C[C@H]1CNC(=O)c1cc(CCCF)cc(OC)c1OC` [(R,S)-trans-2b, (3R,5S)-1-allyl-5-((5-(3-fluoropropyl)-2,3-dimethoxybenzamido)methyl)pyrrolidin-3-yl hexylcarbamate], at D3R [1], the “D2R/D3R Ratio” value was found to be 3.4 and the Ki was 1.6 ± 0.4 nM. Further, at D3R [2], the IC50 stood at 7.8 ± 5.9 nM. In addition, the Ki on human D2 came to 5.5 ± 1 nM.
